Literature values in patent US20050214353A1, “Transdermal therapeutic system” (priority 2001, published 2005).

For `CCN(CC)C(=O)N[C@H]1C=C2c3cccc4[nH]cc(c34)C[C@H]2N(C)C1` [lisuride, 3-(9,10-didehydro-6-methyl-8α-ergolinyl)-1,1-diethyl urea], the “half-life in the blood” value is given as “ca. 2 hrs”.
